Laboratory results: US8796303B2, “Imidazo[2,1-G][1,7]naphthyridines for treating respiratory syncytial virus infections” (Biota Scientific Management Pty Ltd., priority 2010, dated 2014)
≈ marks a conversion by molar mass, not a printed value. Read-outs that look alike come from different tables or passages of the source.

What was measured:
[1] = molecular target: T1, hERG ion channel (Homo sapiens, UniProt Q12809); assay: hERG ion channel inhibition (ScreenPatch assay, IonWorks Quattro); type: cell-based; conditions: for IC50: CHO cells stably transfected with hERG; for inhibition at 5 min, 100 µM: human, CHO cells stably transfected with hERG cDNA
T1 construct: expressed in transfected cells; host or cells: CHO cells
Protocol: The effects of compounds of the invention on the on hERG ion channel can be evaluated using an IonWorks Quattro™ system essentially as described in the literature (see for example Bridgland-Tayor et al, 2006, J. Pharmacological and Toxicological Methods 54: 189).
Four compound concentrations were applied to naïve cells via steel needles of a 48-channel pipettor. Each application consisted of addition of 6 μL of 2× concentrated test compounds to the total of 12 μL of final volume of the extracellular well of the Population Patch Clamp™ (PPC) planar electrode. Duration of exposure to each test compound concentration was at least five minutes.
Intracellular solution was loaded into the intracellular compartment of the PPC planar electrode. Cell suspensions (CHO cells stably transfected with hERG cDNA) are pipetted into the wells of the PPC planar electrode. After establishment of a whole-cell configuration, membrane currents were recorded using patch clamp amplifier in the IonWorks Quattro™ system. Two recordings of the ion channel currents were performed (before and 5 minutes after test compound application). hERG current was measured using a pulse pattern with fixed amplitudes (conditioning prepulse: −80 mV for 25 ms; test pulse +40 mV for 80 ms) from a holding potential of 0 mV. hERG current was measured as a difference between the peak current at 1 ms after the test step to +40 mV and the steady state current at the end of the step to +40 mV.
Data acquisition and analyses was performed using the IonWorks Quattro™ system operation software. The decrease in current amplitude after test compound application was used to calculate the percent block relative to control. A compound is considered to have a low hERG inhibition when the hERG IC50 is >500 times higher than the RSV A2 EC50. The hERG IC50 of the compounds tested was >500 times higher than the corresponding RSV A2 EC50 values.

[2] = system: RSV A2; assay: RSV antiviral CPE assay in HEp2 cells (MTT); type: cell-based, respiratory syncytial virus; conditions: human respiratory syncytial virus, HEp-2, 120 h; HEp2 cells, RSV A2 moi ~0.01, 5 days, CPE by MTT
Protocol: Compounds of the invention were tested for their antiviral activity against respiratory syncytial virus. Cytopathic effect (CPE) assays were performed essentially as described in the literature (see for example Watanabe et al, 1994, J. Virological Methods, 48:257). Serial dilutions of the test compounds were made in 96 well plates. HEp2 cells (1.0×10^4 cells/well) were infected with RSV at a low multiplicity of infection (e.g. RSV A2 at an moi of ˜0.01) and added to plates to assess antiviral activity. Uninfected HEp2 cells were used to assess compound cytotoxicity. Assays were incubated for 5 days at 37° C. in a 5% CO2 atmosphere. The extent of CPE was determined via metabolism of the vital dye 3-(4,5-dimethylthiaxol-2-yl)-2,5-diphenyltetrazolium bromide (MTT). MTT (1 mg/ml) was added to each well and plates incubated for 2 hours incubation at 37° C. Wells were aspirated, iso-propanol (200 μL) was added and absorbance values read at 540/650 nm. Compound concentrations that inhibited CPE by 50% (EC50) and developed cytotoxicity (CC50) were calculated using non-linear regression analysis. The CC50 values of the compounds tested were determined to be >5000 nM.

[3] = Aqueous solubility by laser nephelometry; type: physicochemical; conditions: kinetic from dmso stock, 1% DMSO, 30 minute incubation at 25° C., range 1.6-100
Protocol: Test compounds prepared in DMSO were screened in duplicate over a range of concentrations (1.6-100 ug/mL) in different aqueous media (for example pH2 or pH6.5 buffers which are relevant to the stomach and upper regions of the small intestine). Test compounds were serially diluted in 100% DMSO ranging from 10-0.16 mg/mL. These diluted compounds were then added to test plates (UV Star Griener 96 well plates) containing assay buffers with a further 1:100 dilution keeping a constant 1% DMSO concentration across the plate.

[4] = pH 2, simulated gastric fluid, pH2 buffer, read-out: Solubility at pH2
[5] = pH 6.5, aqueous buffer, pH6.5 buffer, read-out: Solubility at pH6.5

T1 sequence (Q12809 whole entry): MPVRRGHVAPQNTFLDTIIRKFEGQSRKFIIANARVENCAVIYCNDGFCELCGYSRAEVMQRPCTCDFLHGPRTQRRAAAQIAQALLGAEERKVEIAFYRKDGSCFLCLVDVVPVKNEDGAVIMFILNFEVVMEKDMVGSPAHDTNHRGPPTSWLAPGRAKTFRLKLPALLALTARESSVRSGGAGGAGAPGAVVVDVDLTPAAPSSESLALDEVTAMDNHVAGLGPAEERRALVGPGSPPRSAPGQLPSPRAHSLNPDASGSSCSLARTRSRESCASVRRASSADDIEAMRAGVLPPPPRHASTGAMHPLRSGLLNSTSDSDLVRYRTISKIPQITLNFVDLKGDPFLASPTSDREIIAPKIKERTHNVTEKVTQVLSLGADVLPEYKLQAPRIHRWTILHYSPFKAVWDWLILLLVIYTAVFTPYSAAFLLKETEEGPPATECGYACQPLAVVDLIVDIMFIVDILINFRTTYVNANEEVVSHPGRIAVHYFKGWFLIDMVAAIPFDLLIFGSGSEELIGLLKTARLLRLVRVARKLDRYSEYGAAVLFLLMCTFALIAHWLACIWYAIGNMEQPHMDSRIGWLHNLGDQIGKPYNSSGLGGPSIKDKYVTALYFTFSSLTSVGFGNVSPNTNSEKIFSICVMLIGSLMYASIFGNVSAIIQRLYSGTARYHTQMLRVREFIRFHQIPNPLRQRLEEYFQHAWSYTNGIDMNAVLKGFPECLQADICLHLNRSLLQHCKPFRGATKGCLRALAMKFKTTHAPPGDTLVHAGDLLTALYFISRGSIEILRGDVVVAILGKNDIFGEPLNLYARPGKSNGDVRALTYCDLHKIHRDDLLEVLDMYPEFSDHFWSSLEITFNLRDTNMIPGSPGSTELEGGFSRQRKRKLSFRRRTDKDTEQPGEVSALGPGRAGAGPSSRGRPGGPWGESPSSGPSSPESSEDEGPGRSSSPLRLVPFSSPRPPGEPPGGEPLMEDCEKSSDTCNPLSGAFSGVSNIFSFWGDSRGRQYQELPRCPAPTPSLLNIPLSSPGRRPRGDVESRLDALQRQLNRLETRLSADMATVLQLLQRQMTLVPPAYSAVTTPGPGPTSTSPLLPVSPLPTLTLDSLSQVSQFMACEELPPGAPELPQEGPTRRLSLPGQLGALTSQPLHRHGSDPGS

EC50 [2] [nM] | solubility at 30 min [3, 4] [µg/mL] | solubility at 30 min [3, 5] [µg/mL] | SMILES | IC50 [1] [µM] | inhibition at 5 min, 100 µM [1] [%]
4.1 | 50 to 100 (≈ 122 to 245 µM) | > 100 | Cc1nocc1C(=O)N1CCN2C(=O)c3ncccc3C[C@]12c1ccc(Cl)cc1 (single isomer, unassigned) [Compound 2A] | 130 | 41.4
5.2 | 50 to 100 (≈ 122 to 245 µM) | > 100 | Cc1nocc1C(=O)N1CCN2C(=O)c3ncccc3CC12c1ccc(Cl)cc1 (stereo not shown) [Compound 2, 10a-(4-chlorophenyl)-1-[(3-methyl-1,2-oxazol-4-yl)carbonyl]-2,3,10,10a-tetrahydroimidazo[2,1-g][1,7]naphthyridin-5(1H)-one] | 99.2 | 50.2
